Assay results: patent US6716866B2, “Aryl-benzimidazole compounds having antiinfective activity” (GeneSoft Pharmaceuticals, Inc., priority 2001, dated 2004)

What was measured:
[1] = tested on: DNA sequence ATTACT; experiment: Quantitative DNase I footprint titration, site ATTACT; type: binding; conditions: DNase I footprinting, pH 7.0, 22° C.
Description: (§1) A number of compounds according to this invention were screened for their ability to bind to three DNA sites, using DNase I footprinting.
(§2) The target sites and their complements are identified in bold underline.
(§3) The resulting duplexes were ligated to the large pUC19 XbaI/Pstl restriction fragment. […] (Sambrook et al., ibid.)
(§4) The polyamides were allowed to equilbrate at 22° C. for 16 h.

[2] = tested on: DNA sequence ACTACT; experiment: Quantitative DNase I footprint titration, site ACTACT; type: binding; conditions: DNase I footprinting, pH 7.0, 22° C.
Description: as §1, §2, §3, §4

[3] = tested on: DNA sequence ACTAGT; experiment: Quantitative DNase I footprint titration, site ACTAGT; type: binding; conditions: DNase I footprinting, pH 7.0, 22° C.
Description: as §1, §2, §3, §4

[4] = tested on: DNA sequence AGTACT; experiment: Quantitative DNase I footprint titration, site AGTACT; type: binding; conditions: DNase I footprinting, pH 7.0, 22° C.
Description: as §1, §2, §3, §4

[5] = tested on: DNA sequence AATACT; experiment: Quantitative DNase I footprint titration, site AATACT; type: binding; conditions: DNase I footprinting, pH 7.0, 22° C.
Description: as §1, §2, §3, §4

[6] = tested on: S. epidermis ATCC 12228; experiment: MIC against drug-resistant bacteria, S. epidermis ATCC 12228; type: cell-based; conditions: organism D = S. epidermis ATCC 12228, methycillin resistant strain (MRSE)
Description: (§5) Compounds according to this invention were screened for their in vitro activities against selected species of bacteria and fungi. The minimal inhibition concentration (MIC) of these compounds was determined using the National Committee for Clinical Laboratory Standards (NCCLS) broth microdilution assay in microtiter plates, as set forth in: (1) the guidelines of the National Committee for Clinical Laboratory Standards (NCCLS) Document M7-A4 (NCCLS, 1997); (2) the guidelines of the National Committee for Clinical Laboratory Standards (NCCLS) Document M11-A4 (NCCLS, 1997); and (3) the guidelines and reference method of the National Committee for Clinical Laboratory Standards (NCCLS) Document M27-T (NCCLS, 1995). For antifungal essays, the method recommended in Murray, PR., 1995 Manual of Clinical Microbiology (ASM Press, Washington, D.C.), was employed.
(§6) Further, compounds (I) are effective against drug-resistant bacteria, as evidenced by the data in Table 2 below:
(§7) ATCC 27660 and ATCC 33591 are methycillin resistant strains of S. aureus (MRSA's). ATCC 51559 is a vancomycin resistant strain of E. faecium (VRE). ATCC 12228 is a methycillin resistant strain of S. epidermis (MRSE). ATCC 51422 is a penicillin resistant strain of S. pneumoniae.

[7] = tested on: E. faecium ATCC 51559; experiment: MIC against drug-resistant bacteria, E. faecium ATCC 51559; type: cell-based; conditions: organism A = E. faecium ATCC 51559, vancomycin resistant strain (VRE)
Description: as §5, §6, §7

[8] = tested on: S. pneumoniae ATCC 51422; experiment: MIC against drug-resistant bacteria, S. pneumoniae ATCC 51422; type: cell-based; conditions: organism E = S. pneumoniae ATCC 51422, penicillin resistant strain
Description: as §5, §6, §7

[9] = tested on: S. aureus ATCC 27660; experiment: MIC against drug-resistant bacteria, S. aureus ATCC 27660; type: cell-based; conditions: organism B = S. aureus ATCC 27660, methycillin resistant strain (MRSA)
Description: as §5, §6, §7

[10] = tested on: S. aureus ATCC 33591; experiment: MIC against drug-resistant bacteria, S. aureus ATCC 33591; type: cell-based; conditions: organism C = S. aureus ATCC 33591, methycillin resistant strain (MRSA)
Description: as §5, §6, §7

SMILES | Association Constant, Ka [1] | Association Constant, Ka [2] | Association Constant, Ka [3] | Association Constant, Ka [4] | Association Constant, Ka [5] | Minimum Inhibitoty Concentration (MIC) [6] | Minimum Inhibitoty Concentration (MIC) [7] | Minimum Inhibitoty Concentration (MIC) [8] | Minimum Inhibitoty Concentration (MIC) [9] | Minimum Inhibitoty Concentration (MIC) [10]
CN(C)CCCNC(=O)CCNC(=O)c1cc(NC(=O)c2cc(NC(=O)c3cc(NC(=O)c4nc(NC(=O)CCCNC(=O)c5cc(NC(=O)c6cc(NC(=O)c7cc(NC(=O)c8nsc(NCCCN(C)C)c8Cl)cn7C)cn6C)cn5C)cn4C)cn3C)cn2C)cn1C [B, reference compound] | 7e+09 M⁻¹ | 7e+09 M⁻¹ | <1e+08 M⁻¹ | 1e+11 M⁻¹ | 7e+09 M⁻¹ | – | – | – | – | –
CN(C)CCCNC(=O)CCNC(=O)c1cc(NC(=O)c2cc(NC(=O)c3cc(NC(=O)c4nc(NC(=O)CCCNC(=O)c5cc(NC(=O)c6cc(NC(=O)c7cc(NC(=O)c8nccn8C)cn7C)cn6C)cn5C)cn4C)cn3C)cn2C)cn1C [Compound A, reference compound] | 5e+08 M⁻¹ | 5e+08 M⁻¹ | <1e+08 M⁻¹ | 3e+09 M⁻¹ | 500000 M⁻¹ | – | – | – | – | –
CN(C)CCCNC(=O)CCNC(=O)c1cc(NC(=O)c2cc(NC(=O)c3cc(NC(=O)c4nc(NC(=O)CCCNC(=O)c5cc(NC(=O)c6cc(NC(=O)c7ccc8nc(-c9nccn9C)[nH]c8c7)cn6C)cn5C)cn4C)cn3C)cn2C)cn1C [Compound I-8] | 5e+09 M⁻¹ | 5e+09 M⁻¹ | <1e+08 M⁻¹ | 1e+11 M⁻¹ | 1e+09 M⁻¹ | – | – | – | – | –
Cn1cc(NC(=O)c2ccc(F)cc2F)cc1C(=O)Nc1cc(-c2nc3ccc(C(=O)NCCN4CCCCC4)cc3[nH]2)n(C)c1 [Compound I-21] | – | – | – | – | – | +++ (MIC ≦4) | +++ (MIC ≦4) | +++ (MIC ≦4) | +++ (MIC ≦4) | +++ (MIC ≦4)

Other lines, results leading:

Association Constant, Ka [1] | Association Constant, Ka [2] | Association Constant, Ka [3] | Association Constant, Ka [4] | Association Constant, Ka [5] | Minimum Inhibitoty Concentration (MIC) [6] | Minimum Inhibitoty Concentration (MIC) [7] | Minimum Inhibitoty Concentration (MIC) [8] | Minimum Inhibitoty Concentration (MIC) [9] | Minimum Inhibitoty Concentration (MIC) [10] | SMILES
– | – | – | – | – | +++ (MIC ≦4) | +++ (MIC ≦4) | +++ (MIC ≦4) | +++ (MIC ≦4) | +++ (MIC ≦4) | Cn1cc(NC(=O)c2ccc(F)cc2F)cc1C(=O)Nc1cc(-c2nc3ccc(C(=O)NCCN4CCSCC4)cc3[nH]2)n(C)c1 [Compound I-20]
– | – | – | – | – | +++ (MIC ≦4) | +++ (MIC ≦4) | +++ (MIC ≦4) | +++ (MIC ≦4) | +++ (MIC ≦4) | Cn1cc(NC(=O)c2ccc3nc(-c4cc(NC(=O)c5cc6ccccc6cn5)cn4C)[nH]c3c2)cc1C(=O)NCCN1CCCCC1 [Compound I-22]
– | – | – | – | – | +++ (MIC ≦4) | +++ (MIC ≦4) | +++ (MIC ≦4) | +++ (MIC ≦4) | ++ (MIC between 4 and 12) | Cn1cc(NC(=O)c2sc3ccccc3c2Cl)cc1C(=O)Nc1cc(-c2nc3ccc(C(=O)NCCN4CCSCC4)cc3[nH]2)n(C)c1 [Compound I-23]
– | – | – | – | – | +++ (MIC ≦4) | +++ (MIC ≦4) | +++ (MIC ≦4) | +++ (MIC ≦4) | + (MIC from 12 to 32, inclusive) | C[C@@H]1CN(CCNC(=O)c2ccc3nc(-c4cc(NC(=O)c5cc(NC(=O)c6sc7ccccc7c6Cl)cn5C)cn4C)[nH]c3c2)C[C@H](C)O1 [Compound I-26]
